{"source": "patent US20150265682A1", "about": "“THERAPEUTIC METHODS AND COMPOSITIONS FOR TREATING DIABETES” (Orient Europharma Co., Ltd., priority 2014, published 2015)", "key": {"[1]": {"system": "liver of normal, type 1 DM and type 2 DM mice", "test": "Glycogen content in liver in vivo (borapetoside A)", "design": "species or system ICR mice", "details": "borapetoside A 10 mgkg^−1 i.p. 60 minutes, insulin 0.5 IUkg^−1", "procedure": "(§1) After three days of acclimatization, the mice had free access to a standard rodent chow (normal mice), a standard rodent chow after single […] streptozotocin (STZ) intraperitoneal injection (T1DM mice), and a fat-rich chow diet and fructose-sweetened water (T2DM mice) for 4 weeks. The induction of Type 1 DM was assessed and confirmed when the mice had plasma glucose levels ≧350 mgdL^−1, accompanied with polyuria, hyperphagia and decreased body weight. The induction Type 2 DM in the mice was assessed by measuring fasting plasma glucose levels and confirmed when plasma glucose level was ≧150 mgdL^−1 after the 4-week induction. The animals were assigned randomly into three groups, with seven animals in each group. In group I, the mice were treated with vehicle, 2% DMSO in normal saline, as the negative control. In group II, the mice were intraperitoneally treated with borapetoside A (0.1-10 mgkg^−1). In group Ill, the positive control, the mice received intraperitoneally metformin (300 mgkg^−1; Sigma Chemical Co., St. Louis, Mo., U.S.A.) or insulin (0.5 IUkg^−1; Insulin Actrapid® HM; Novo Nordisk, Denmark). In the acute study, mice under anesthesia received a single intraperitoneal administration of borapetoside A, negative control, or positive control. In the subacute study, mice received intraperitoneal administrations of borapetoside A, vehicle, or insulin twice a day for seven days.\n(§2) The mice were injected with borapetoside A (10 mgkg^−1, interperitoneal) for 60 minutes or insulin (0.5 IUkg^−1, interperitoneal) for 30 minutes. After the treatment, the anesthetic mice were sacrificed by cervical dislocation to collect the soleus muscle and liver. About 40 mg of each sample was dissolved in 1 mol/L KOH at 75° C. for 30 min. The dissolved homogenate was neutralized by glacial acetic acid and then incubated overnight in acetate buffer (0.3 mol/L sodium acetate, pH 4.8) containing amyloglucosidase (Sigma, St. Louis, Mo.). The mixture was then neutralized with 1 mol/L NaOH to stop the reaction. The glycogen contents in the tissue samples were determined as μg of glucose per mg of tissue (wet weight)."}, "IL-6-treated C2C12 cells": {"system": "IL-6-treated C2C12 cells", "test": "Glycogen content assay in IL-6-treated (insulin resistant) C2C12 cells", "format": "cell-based", "details": "30 minutes; for fold increase of glycogen content: IL-6-treated C2C12", "procedure": "The C2C12 skeletal muscle cells were cultured in Dulbecco's modified Eagle's medium (DMEM; Gibco/Invitrogen, Carlsbad, Calif.), and the human hepatocellular carcinoma cell line, Hep3B, was cultured in Roswell Park Memorial Institute medium 1640 (RPMI 1640 medium; Gibco/Invitrogen, Carlsbad, Calif.). Cells were cultured at 37° C. in the humidified incubator supplied with 5% CO2. Culture mediums were supplemented with 4.5 mgmL^−1 glucose, penicillin 100 IUmL^−1, streptomycin 100 μgmL^−1 and 10% fetal bovine serum (Gibco/Invitrogen, Carlsbad, Calif.). Only C2C12 cells were then switched to 2% horse serum for 3 days after reaching the 70% confluence. Myotubes formation was achieved after 4 days of incubation, and the cells were used for subsequent experiments. Culture mediums were replaced by serum free DMEM or RPMI for 24 h before experiments (see e.g., procedure described in Sultan et al., 2006).\nC2C12 and Hep3B cells were treated with 1 nM insulin, 100 μM metformin, and the assigned concentration of borapetoside A for 30 minutes. To develop the insulin resistance state of cells, C2C12 cells were incubated with IL-6 at 20 ngmL^−1 for 1 hour. Later, the cells were treated with 1 nM insulin, 100 μM metformin, and the assigned concentration of borapetoside A for 30 minutes. After the assigned treatment, cells were washed twice with phosphate buffered saline (PBS). Glycogen content was measured as previously described, with some modifications (see e.g., Savage et al., 2008). The protein concentrations of the cell lysates were determined by using Pierce BCA Protein Assay Kit (Thermo-Scientific, Rockford, Ill.). The glycogen content of each sample was normalized by total protein."}, "[2]": {"system": "soleus muscle of normal, type 1 DM and type 2 DM mice", "test": "Glycogen content in soleus muscle in vivo (borapetoside A)", "design": "species or system ICR mice", "details": "borapetoside A 10 mgkg^−1 i.p. 60 minutes, insulin 0.5 IUkg^−1", "procedure": "as §1, §2"}, "[3]": {"system": "skeletal muscle of normal, T1DM and T2DM mice", "test": "Glycogen content in skeletal muscle after borapetoside C and insulin", "format": "in vivo, ICR mice", "details": "for Glycogen content in skeletal muscle: BoC 0.1 mg/kg i.p. 30 min before insulin, 30 min after insulin injection", "procedure": "T1DM mice were induced by a known method. In brief, an intraperitoneal injection of streptozotocin (STZ; Sigma Chemical Co.; St. Louis, Mo.) at 150 mg/kg was performed in mice that were fasted for 48 h. The induction of T1DM was assessed and confirmed when the mice had plasma glucose levels ≧350 mg/dL, accompanied with polyuria, hyperphagia and decreased body weight. The control mice group received an injection of vehicle and then carried out for 4 weeks. T2DM mice were induced by maintaining on a fat-rich chow diet and fructose-sweetened water for 4 weeks from the age of 4-5 weeks according to previous methods. The induction T2DM mice were assessed by measuring fasting plasma glucose levels and confirmed when plasma glucose level was ≧150 mg/dL after a 4-week induction.\nGlycogen content of skeletal muscles was measured by a known method. In brief, mice were injected with borapetoside C (5.0 mg/kg, interperitoneal) for 60 min or insulin (0.5 IU/kg, interperitoneal.) for 30 min, and the soleus muscle was isolated from anesthetized mice. About 40 mg of muscle sample was dissolved in 1 N KOH at 75° C. for 30 min. The dissolved homogenate was neutralized by glacial acetic acid and then incubated overnight in acetate buffer (0.3 M sodium acetate, pH 4.8) containing amyloglucosidase (Sigma, St. Louis, Mo.). The mixture was then neutralized with 1 N NaOH to stop the reaction. The glycogen contents in the tissue samples were determined as μg of glucose per mg of tissue (wet weight).\nBoth non-diabetic and diabetic mice were subjected to various doses of insulin injections at 30 min after intraperitoneal injections with borapetoside C (0.1 mg/kg) or with the vehicle. The glycogen contents in skeletal muscles were then determined at 30 min after insulin injections (Table 4). The ratios of increased glycogen content in the other groups were normalized to those of vehicle-treated group. The ratio was 119.8%, 125.3%, and 108.5% in normal, T1DM, and T2DM mice of insulin-treated group. In borapetoside C combined with insulin-treated group, it was 130.2%, 162.8%, and 122.6% in normal, T1DM, and T2DM mice. […] The increase of insulin sensitivity by borapetoside C is more prominent in diabetic mice than normal mice. Similarly, plasma glucose reduction in mice treated with insulin and borapetoside A are tested and measured."}}}
{"compound": "C[C@@]12C[C@@H](c3ccoc3)OC(=O)[C@@H]1C[C@@H]1OC(=O)[C@@]3(O)[C@@H](O[C@@H]4O[C@H](CO)[C@@H](O)[C@H](O)[C@H]4O)CC[C@@H]2[C@@]13C", "note": "[Borapetoside A, borapetoside A]", "values": [{"measurement": "glycogen content in liver", "setting": "[1]; mice with type 1 DM", "result": "196.9±15.6 % of vehicle control"}, {"measurement": "glycogen content in liver", "setting": "[1]; mice with type 2 DM", "result": "146.1±12.0 % of vehicle control"}, {"measurement": "glycogen content in liver", "setting": "[1]; normal mice", "result": "257.8±15.8 % of vehicle control"}, {"measurement": "fold increase of glycogen content", "setting": "IL-6-treated C2C12 cells; 10^−6 mol/L", "result": "1.64±0.05", "unit": "fold"}, {"measurement": "fold increase of glycogen content", "setting": "IL-6-treated C2C12 cells; 10^−7 mol/L", "result": "1.38±0.06", "unit": "fold"}, {"measurement": "fold increase of glycogen content", "setting": "IL-6-treated C2C12 cells; 10^−8 mol/L", "result": "1.35±0.08", "unit": "fold"}, {"measurement": "glycogen content in soleus muscle", "setting": "[2]; mice with type 1 DM", "result": "155.6±8.6 % of vehicle control"}, {"measurement": "glycogen content in soleus muscle", "setting": "[2]; mice with type 2 DM", "result": "171.8±12.0 % of vehicle control"}, {"measurement": "glycogen content in soleus muscle", "setting": "[2]; normal mice", "result": "116.5±4.2 % of vehicle control"}]}
{"compound": "COC(=O)C1=CCC[C@H]2[C@]3(C)C[C@@H](c4ccoc4)OC(=O)[C@@H]3C[C@@H](O[C@@H]3O[C@H](CO)[C@@H](O)[C@H](O)[C@H]3O)[C@@]12C", "note": "[Borapetoside C, borapetoside C]", "values": [{"measurement": "Glycogen content in skeletal muscle", "setting": "[3]; Normal mice", "result": "32.7 ± 0.7 μg of glucose per mg of tissue (wet weight)"}, {"measurement": "Glycogen content in skeletal muscle", "setting": "[3]; T1DM mice", "result": "30.0 ± 1.2 μg of glucose per mg of tissue (wet weight)"}, {"measurement": "Glycogen content in skeletal muscle", "setting": "[3]; T2DM mice", "result": "30.7 ± 1.3 μg of glucose per mg of tissue (wet weight)"}]}
{"compound": "Insulin: human insulin, Insulin Actrapid HM, a short-acting insulin provided by Novo Nordisk [reference compound]", "values": [{"measurement": "glycogen content in liver", "setting": "[1]; mice with type 2 DM", "result": "failed to enhance"}, {"measurement": "glycogen content", "setting": "IL-6-treated C2C12 cells; IL-6-induced insulin resistant model, 1 nM insulin", "result": "not increased"}, {"measurement": "Glycogen content in skeletal muscle", "setting": "[3]; Normal mice", "result": "38.1 ± 0.3 μg of glucose per mg of tissue (wet weight)"}, {"measurement": "ratio of glycogen content normalized to vehicle-treated group", "setting": "[3]; T1DM mice", "result": 125.3, "unit": "%"}, {"measurement": "Glycogen content in skeletal muscle", "setting": "[3]; T1DM mice", "result": "38.1 ± 2.3 μg of glucose per mg of tissue (wet weight)"}, {"measurement": "ratio of glycogen content normalized to vehicle-treated group", "setting": "[3]; T2DM mice", "result": 108.5, "unit": "%"}, {"measurement": "Glycogen content in skeletal muscle", "setting": "[3]; T2DM mice", "result": "35.5 ± 1.1 μg of glucose per mg of tissue (wet weight)"}, {"measurement": "ratio of glycogen content normalized to vehicle-treated group", "setting": "[3]; normal mice", "result": 119.8, "unit": "%"}, {"measurement": "glycogen content in soleus muscle", "setting": "[2]; mice with type 2 DM", "result": "failed to enhance"}]}
